Reference: patent US20090105305A1, “Therapeutic Agents - 550” (AstraZeneca AB, priority 2006, published 2009)

Target: T1, human Fatty Acid Synthase (Homo sapiens, UniProt P49327)
T1 construct: made in house
Assay: Human FAS enzyme assay (decrease in NADPH fluorescence)
Type: biochemical
Details: % inhibition at a concentration of 100 micromolar
How it was run: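 Readout: decrease in NADPH fluorescence (340 nm ex, 460 nm em) after 60 min at RT, background-subtracted against a read taken before substrate. Substrate mix contained 500 μM malonyl-CoA and 150 μM acetyl-CoA. It was added after 15 min enzyme (0.4 μg in-house human FAS)–compound–NADPH preincubation in Tris pH 7.5 buffer; % inhibition was fitted to IC50.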

T1 sequence (P49327 whole entry): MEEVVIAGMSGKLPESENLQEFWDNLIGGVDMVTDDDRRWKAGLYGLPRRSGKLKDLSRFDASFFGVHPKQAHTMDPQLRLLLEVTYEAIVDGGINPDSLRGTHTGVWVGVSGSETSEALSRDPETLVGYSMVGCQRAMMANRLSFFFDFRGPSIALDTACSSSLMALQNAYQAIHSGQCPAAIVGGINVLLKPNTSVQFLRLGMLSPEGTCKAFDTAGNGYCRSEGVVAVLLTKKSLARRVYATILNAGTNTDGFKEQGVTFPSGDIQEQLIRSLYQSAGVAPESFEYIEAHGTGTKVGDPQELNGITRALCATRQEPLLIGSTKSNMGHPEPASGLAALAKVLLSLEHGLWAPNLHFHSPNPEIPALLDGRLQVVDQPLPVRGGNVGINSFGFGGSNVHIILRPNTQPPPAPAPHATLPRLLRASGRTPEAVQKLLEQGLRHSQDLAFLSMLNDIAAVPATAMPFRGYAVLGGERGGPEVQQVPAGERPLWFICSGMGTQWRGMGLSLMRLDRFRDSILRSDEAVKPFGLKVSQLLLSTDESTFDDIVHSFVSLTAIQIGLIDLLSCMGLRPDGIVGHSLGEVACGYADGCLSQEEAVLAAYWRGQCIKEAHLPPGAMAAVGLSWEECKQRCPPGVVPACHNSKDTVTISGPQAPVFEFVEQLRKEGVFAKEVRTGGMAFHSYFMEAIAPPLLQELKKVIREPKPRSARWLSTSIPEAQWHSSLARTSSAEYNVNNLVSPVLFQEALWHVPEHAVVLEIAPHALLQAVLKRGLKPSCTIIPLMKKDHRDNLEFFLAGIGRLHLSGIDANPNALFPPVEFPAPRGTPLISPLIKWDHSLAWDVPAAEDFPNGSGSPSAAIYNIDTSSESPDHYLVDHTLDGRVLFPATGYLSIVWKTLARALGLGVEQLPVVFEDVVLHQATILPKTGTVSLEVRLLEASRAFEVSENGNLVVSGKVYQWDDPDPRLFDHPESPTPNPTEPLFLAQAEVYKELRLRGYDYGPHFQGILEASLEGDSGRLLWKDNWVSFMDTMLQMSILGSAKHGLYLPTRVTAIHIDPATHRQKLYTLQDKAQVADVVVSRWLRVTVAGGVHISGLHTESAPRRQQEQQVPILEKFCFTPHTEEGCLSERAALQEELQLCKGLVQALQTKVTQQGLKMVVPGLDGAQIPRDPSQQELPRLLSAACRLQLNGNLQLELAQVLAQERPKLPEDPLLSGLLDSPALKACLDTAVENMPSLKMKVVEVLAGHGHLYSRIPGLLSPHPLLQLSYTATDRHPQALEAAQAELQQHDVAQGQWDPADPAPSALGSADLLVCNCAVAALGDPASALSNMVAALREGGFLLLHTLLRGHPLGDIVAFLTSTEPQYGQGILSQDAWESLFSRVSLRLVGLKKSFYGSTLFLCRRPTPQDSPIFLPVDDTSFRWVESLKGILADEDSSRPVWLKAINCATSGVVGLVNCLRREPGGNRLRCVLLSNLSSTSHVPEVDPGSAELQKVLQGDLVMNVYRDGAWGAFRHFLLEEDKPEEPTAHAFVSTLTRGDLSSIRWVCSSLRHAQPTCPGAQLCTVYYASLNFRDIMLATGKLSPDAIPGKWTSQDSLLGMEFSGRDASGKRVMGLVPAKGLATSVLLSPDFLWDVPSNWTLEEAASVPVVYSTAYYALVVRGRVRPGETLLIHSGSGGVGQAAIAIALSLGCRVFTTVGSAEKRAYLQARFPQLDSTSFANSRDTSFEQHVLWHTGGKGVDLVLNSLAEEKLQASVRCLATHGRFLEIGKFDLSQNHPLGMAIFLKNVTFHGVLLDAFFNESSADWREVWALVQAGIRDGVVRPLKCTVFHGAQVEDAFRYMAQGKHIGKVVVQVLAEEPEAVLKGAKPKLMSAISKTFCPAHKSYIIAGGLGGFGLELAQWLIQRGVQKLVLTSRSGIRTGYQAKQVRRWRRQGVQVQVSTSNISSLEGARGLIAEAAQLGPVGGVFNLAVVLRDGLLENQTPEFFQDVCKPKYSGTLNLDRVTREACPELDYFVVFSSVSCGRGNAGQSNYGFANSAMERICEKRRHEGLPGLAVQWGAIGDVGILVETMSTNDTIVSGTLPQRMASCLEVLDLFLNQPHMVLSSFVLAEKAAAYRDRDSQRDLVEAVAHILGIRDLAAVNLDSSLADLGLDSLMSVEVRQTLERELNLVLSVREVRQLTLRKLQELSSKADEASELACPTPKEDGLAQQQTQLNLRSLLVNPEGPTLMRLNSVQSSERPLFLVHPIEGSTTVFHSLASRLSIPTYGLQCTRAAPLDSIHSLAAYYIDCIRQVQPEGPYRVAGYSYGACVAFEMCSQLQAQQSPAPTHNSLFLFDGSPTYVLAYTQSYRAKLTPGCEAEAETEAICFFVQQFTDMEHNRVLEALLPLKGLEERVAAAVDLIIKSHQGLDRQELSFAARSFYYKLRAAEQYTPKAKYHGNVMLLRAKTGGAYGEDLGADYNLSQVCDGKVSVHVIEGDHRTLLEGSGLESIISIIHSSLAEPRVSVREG

Going from `Cc1ccc(C(=O)N2CCC(c3ccc(C#N)cc3)CC2)cc1NS(=O)(=O)Cc1ccccc1F` [Example 26, N-[5-[4-(4-cyanophenyl)piperidine-1-carbonyl]-2-methyl-phenyl]-1-(2-fluorophenyl)methanesulfonamide] to `Cc1ccc(C(=O)N2CCC(c3ccc(C#N)cc3)CC2)cc1NS(=O)(=O)c1cccc(C#N)c1` [Example 21, 3-cyano-N-[5-[4-(4-cyanophenyl)piperidine-1-carbonyl]-2-methyl-phenyl]benzenesulfonamide], the inhibition at 100 µM falls from 94% to 90%.

First: C#Cc1ccc(C2CCN(C(=O)c3ccc(C)c(NS(C)(=O)=O)c3)CC2)cc1 [Example 172, N-[5-[4-(4-ethynylphenyl)piperidine-1-carbonyl]-2-methylphenyl]methanesulfonamide]
Second: Cc1ccc(C(=O)N2CCC(c3ccc(S(N)(=O)=O)cc3)CC2)cc1NS(C)(=O)=O [Example 186, 4-[1-(3-methanesulfonamido-4-methylbenzoyl)piperidin-4-yl]benzenesulfonamide]
The inhibition at 100 µM of the first is lower: 85% for the first, 99% for the second.

Compared with `C=CS(=O)(=O)Nc1cc(C(=O)N2CCC(c3ccc(C#N)cc3)CC2)ccc1C` [Example 98, N-[5-[4-(4-cyanophenyl)piperidine-1-carbonyl]-2-methyl-phenyl]ethenesulfonamide], `Cc1ccc(C(=O)N2CCC(c3ccc(C#N)cc3)CC2)cc1NS(=O)(=O)C(F)(F)F` [Example 209, N-[5-[4-(4-cyanophenyl)piperidine-1-carbonyl]-2-methylphenyl]-1,1,1-trifluoromethane-sulfonamide] is lower in inhibition at 100 µM: 110% for the first, 76% for the second.

Compared with `CCNC(=O)NCc1ccc(C2CCN(C(=O)c3ccc(C)c(NS(C)(=O)=O)c3)CC2)cc1` [Example 234, 1-ethyl-3-[[4-[1-(3-methanesulfonamido-4-methylbenzoyl)piperidin-4-yl]phenyl]methyl]urea], `CCCC(=O)NCc1ccc(C2CCN(C(=O)c3ccc(C)c(NS(C)(=O)=O)c3)CC2)cc1` [Example 235, N-[[4-[1-(3-methanesulfonamido-4-methylbenzoyl)piperidin-4-yl]phenyl]methyl]butanamide] is lower in inhibition at 100 µM: 78.3% for the first, 72.8% for the second.

First: Cc1ccc(C(=O)N2CCC(c3ccc(S(C)(=O)=O)cc3)CC2)cc1NS(=O)(=O)Cc1ccccc1 [Example 193, N-[2-methyl-5-[4-(4-methylsulfonylphenyl)piperidine-1-carbonyl]phenyl]-1-phenyl-methanesulfonamide]
Second: Cc1ccc(C(=O)N2CCC(O)(c3ccc(C#N)cc3)CC2)cc1NS(=O)(=O)Cc1ccccc1 [Example 70, N-[5-[4-(4-cyanophenyl)-4-hydroxy-piperidine-1-carbonyl]-2-methyl-phenyl]-1-phenyl-methanesulfonamide]
The inhibition at 100 µM of the first is lower: 70% for the first, 87% for the second.

For `Cc1ccc(C(=O)N2CCC(c3ccc(OC(F)(F)F)cc3)CC2)cc1NS(C)(=O)=O` [Example 180, N-[2-methyl-5-[4-[4-(trifluoromethoxy)phenyl]piperidine-1-carbonyl]phenyl]methanesulfonamide], the inhibition at 100 µM was 96%.

Same assay, conditions: compounds excluded from the claims by proviso

With `Cc1ccc(C(=O)N2CCC(c3ccccc3)CC2)cc1NS(=O)(=O)c1ccc(Cl)cc1` [4-chloro-N-[2-methyl-5-(4-phenylpiperidine-1-carbonyl)phenyl]benzenesulfonamide] the “IC50s in the range of about 0.001 μM to about 30 μM” value was “do not have IC50s in the range of about 0.001 μM to about 30 μM”.
`Cc1ccc(C(=O)N2CCC(c3ccc(CC(=O)N(C)C)cc3)CC2)cc1NS(C)(=O)=O` [2-[4-[1-(3-methanesulfonamido-4-methylbenzoyl)piperidin-4-yl]phenyl]-N,N-dimethylacetamide] was tested, and the “IC50s in the range of about 0.001 μM to about 30 μM” value was “do not have IC50s in the range of about 0.001 μM to about 30 μM”.

Same assay, conditions: unit inferred

In the case of `COCCOCC#Cc1ccc(C2CCN(C(=O)c3ccc(C)c(NS(C)(=O)=O)c3)CC2)cc1` [Example 247, N-[5-[4-[4-[3-(2-methoxyethoxy)prop-1-ynyl]phenyl]piperidine-1-carbonyl]-2-methylphenyl]methanesulfonamide], the IC50 is reported as 1.78 µM.
